Source: patent publication US10899707B2, “Methods for forming peroxyformic acid and uses thereof” (ECOLAB USA INC., priority 2014, dated 2021)
Several values for one entry are separate records, joined by “and”; a condition that tells them apart may be missing. Equal entries are not always repeated. Where two headings read alike, the source gives them in different places.

Key:
[1] = test system: microbes in water sample (80% tap water 20% produced water); assay: Kill performance (log reduction) in water sample, 5 min exposure; type: cell-based; conditions: exposure time 5 min
Excerpt: Synergy examples range from pH 0 to 12 at varied concentrations. Synergistic activity is defined as a technical effect that exceeds the addition of the cumulative performance of the materials in formulation.
As referred to in Table 8 the following commercially-available test substances were employed: POAA (15% POAA, 10% H2O2), PAA 1 (21% peracetic, 3.5% H2O2), POOA (0.5% POOA, 6.8% H2O2).

[2] = test system: microorganisms in produced water; assay: Microbial efficacy by ATP concentration (AccuCount) in produced water; type: cell-based; conditions: PFA 5 ppm active, compounds 50 ppm product
Method: Microbial efficacy of PFA alone (5 ppm active) or PFA (5 ppm active) in conjunction with the compounds (50 ppm product) listed in the Table 20 below and in FIG. 13 were tested by measuring the ATP concentration in the untreated and treated produced water samples (using AccuCount technology). Reductions in bacterial numbers were tabulated as % kill for each experiment. The results are represented in FIG. 13 and in Table 20.

[3] = Performance of corrosion inhibitor in sea water and produced water systems (% protection); conditions: 200 ppm active performic acid, 50 ppm corrosion inhibitor (PFA: no inhibitor)
Method: 200 ppm active of performic acid was added. 50 ppm of corrosion inhibitor was added for corrosion protection. % protection was plotted by comparison of the corrosion rate in the presence of corrosion inhibitor to the corrosion rate with no corrosion inhibitor addition (PFA or PFA-PW) as shown in Table 30.

[4] = test system: L. monocytogenes (ATCC 19114, 19116 and 4594); assay: Low temperature disinfectant efficacy, log reduction; type: cell-based; conditions: 4° C.; 1 minute contact exposure; FIG. 32
Method: Micro efficacy of PFA according to the present invention was evaluated under low temperature, low oxygen conditions employing the formulation of Table 41.
The log reduction of L. monocytogenes (ATCC 19114, 19116 and 4594) were evaluated at low temperature (4° C.) comparing peroxvacetic acid to the peroxyformic acid generated according to the formulation shown in Table 41. The results are shown in FIG. 32 comparing disinfectant efficacy after a 1 minute contact exposure to the disinfectants.
As a result, the performic acid generated has a great fit for application in brewery plants. The exceptional antimicrobial efficacy of performic acid at low temperature meets the requirement of cold temperature environment of brewery operations, while common biocides including peroxycarboxylic acids such as peracetic acids will suffer the efficacy lose under low temperatures. In addition, formic acid that always coexists with performic acid is a very efficient acidulant, which will help prevent/dissolve beer stone, thus eliminate the additional acid wash. As a further benefit the performic acid composition has very high performic acid to H2O2 ratio, which practically eliminates the O2 that could potentially introduced to the liquid being processed (i.e. beer) and interfere with the organoleptic effects and negative taste effects.

[5] = test system: Various pathogens; type: cell-based; conditions: for Result (Passing Requirement 5 log reduction): EN 13727
[6] = test system: Pseudomonas; assay: Bactericidal activity of PFA versus POAA; type: cell-based; conditions: P. aeruginosa ATCC 15442, 5 minutes, dirty conditions, 20° C.
Excerpt: (§1) Staphylococcus, Enterococcus and Pseudomonas pathogens were used to evaluate the micro efficacy of PFA in comparison to POAA.

[7] = test system: Enterococcus; assay: Bactericidal activity of PFA versus POAA; type: cell-based; conditions: E. hirae ATCC 10541, 5 minutes, dirty conditions, 20° C.
Excerpt: as §1

[8] = test system: Staphylococcus; assay: Bactericidal activity of PFA versus POAA; type: cell-based; conditions: S. aureus ATCC 6538, 5 minutes, dirty conditions, 20° C.
Excerpt: as §1

[9] = test system: Nalidixic acid resistant E. coli O157:H7; assay: Reduction of E. coli on raw beef brisket, dip treatment; type: cell-based; conditions: for CFU/cm2 / CFU/ml / Log CFU/cm2: replicates
Excerpt: Nalidixic acid resistant E. coli O157:H7 was used to evaluate the efficacy in treatment with performic acid composition on raw beef brisket according to the conditions shown in Table 32.

[10] = test system: acid producing bacteria (APBs); assay: Biocidal performance on treated produced water, bug bottles serial dilution; type: cell-based; conditions: PFA treatment of produced water
Method: Treatment of produced water with performic acid was evaluated using performic acid compositions containing a corrosion inhibitor. As shown in FIG. 28 (grey scale) the lighter color […] in the water, whereas the darker shading indicates no growth. Untreated has E5 bacteria/mL; 0.5 ppm PFA treated has E3 bacteria/mL. The bacterial bug bottles are specific in supporting growth of acid producing bacteria (APBs). Growth of APB is indicated by a color change from dark to light color (pink to yellow). 1 mL of initial inoculum was diluted 10 times in subsequent bottles. Therefore each bottle indicates a El bacteria/mL. Based on the results observed by growth/no growth of bacteria it can be concluded that PFA treatment results in at least a reduction of 2 log (equivalent of E2 bacteria/mL) bacteria.

[11] = 180 ppm PFA, pH 8.76, 10 minutes, raw beef brisket
[12] = 220 ppm POAA, pH 8.86, 10 minutes, raw beef brisket

With `O=COO` [PFA, peroxyformic acid] the Log reduction ([1]; 2 ppm PFA) was 3.01, the Log reduction ([1]; 8.5 ppm PFA) was 5.69 and the Log reduction ([1]; 10 ppm PFA) was 5.28. The “% Kill” value [2] was 87.9%, the “% Protection, 3 hrs after dosing” value ([3]; produced water (PW)) was −237.2% and the “% Protection, 8 hrs after dosing” value ([3]; produced water (PW)) was −228.1%. For the same compound, the “% Protection, Last hour of testing” value ([3]; produced water (PW)) was −261.2%, the “% Protection, 3 hrs after dosing” value ([3]; sea water) was −10666.2% and the “% Protection, 8 hrs after dosing” value ([3]; sea water) was −13447.5%. For the same compound, the “% Protection, Last hour of testing” value ([3]; sea water) was −14481.9%, the “disinfectant efficacy at the lower temperature (in words)” value [4] was “does not decrease” and the “Result (Passing Requirement 4 log reduction)” value ([5]; EN 13624, Aspergillus brasiliensis ATCC 1604, 450 ppm PFA pH 6-7) was “PASS”. The “Result (Passing Requirement 4 log reduction)” value ([5]; EN 13624, Canidia albicans ATCC 10231, 450 ppm PFA pH 6-7) was “PASS”, the “Result (Passing Requirement 3 log reduction)” value ([5]; EN 13704, Bacillus subtilis ATCC 6633, 450 ppm PFA pH 6-7) was “PASS” and the “Result (Passing Requirement 5 log reduction)” value ([5]; Enterococcus hirae ATCC 10541, 450 ppm PFA pH 6-7) was “PASS”. For the same compound, the “Result (Passing Requirement 5 log reduction)” value ([5]; P. aeruginosa ATCC 15442, 450 ppm PFA pH 6-7) was “PASS”, the “Result (Passing Requirement 5 log reduction)” value ([5]; Staph. Aureus ATCC 6538, 450 ppm PFA pH 6-7) was “PASS” and the “Result (Passing Requirement 4 log reduction)” value ([5]; pH 6) was “PASS”. The “Average CFU/mL” value ([6]; 20 ppm PFA × 1.25, pH 6.61) was less than 140 CFU/mL, the “Log10 Growth” value ([6]; 20 ppm PFA × 1.25, pH 6.61) was less than 2.15 and the “Average CFU/mL” value ([6]; 30 ppm PFA × 1.25, pH 6.74) was less than 140 CFU/mL. The “Log10 Growth” value ([6]; 30 ppm PFA × 1.25, pH 6.74) was less than 2.15, the “Average CFU/mL” value ([6]; 50 ppm PFA × 1.25, pH 6.60) was less than 140 CFU/mL and the “Log10 Growth” value ([6]; 50 ppm PFA × 1.25, pH 6.60) was less than 2.15. The “Average CFU/mL” value ([7]; 20 ppm PFA × 1.25, pH 6.61) was 6.30E+03 CFU/mL, the “Log10 Growth” value ([7]; 20 ppm PFA × 1.25, pH 6.61) was 3.80 and the “Average CFU/mL” value ([7]; 30 ppm PFA × 1.25, pH 6.74) was 2.15E+02 CFU/mL. For the same compound, the “Log10 Growth” value ([7]; 30 ppm PFA × 1.25, pH 6.74) was 2.33, the “Average CFU/mL” value ([7]; 50 ppm PFA × 1.25, pH 6.60) was less than 140 CFU/mL and the “Log10 Growth” value ([7]; 50 ppm PFA × 1.25, pH 6.60) was less than 2.15. The “Average CFU/mL” value ([8]; 20 ppm PFA × 1.25, pH 6.61) was less than 140 CFU/mL, the “Log10 Growth” value ([8]; 20 ppm PFA × 1.25, pH 6.61) was less than 2.15 and the “Average CFU/mL” value ([8]; 30 ppm PFA × 1.25, pH 6.74) was less than 140 CFU/mL. For the same compound, the “Log10 Growth” value ([8]; 30 ppm PFA × 1.25, pH 6.74) was less than 2.15, the “Average CFU/mL” value ([8]; 50 ppm PFA × 1.25, pH 6.60) was less than 140 CFU/mL and the “Log10 Growth” value ([8]; 50 ppm PFA × 1.25, pH 6.60) was less than 2.15. For the same compound, the “Average Log CFU/cm2” value [9, 11] was 3.22 Log CFU/cm2, the “Log reduction” value [9, 11] was 0.83 and the CFU/cm2 [9, 11] was 1.84E+03 CFU/cm2 and 1.42E+03 CFU/cm2 and 1.72E+03 CFU/cm2. The CFU/ml [9, 11] was 9.20E+02 CFU/ml and 7.10E+02 CFU/ml and 8.60E+02 CFU/ml, the “Log CFU/cm2” value [9, 11] was 3.26 Log CFU/cm2 and 3.15 Log CFU/cm2 and 3.24 Log CFU/cm2 and the reduction of bacteria [10] was no less than 2 log.

For `CC(=O)OO` [POAA, peroxyacetic acid, reference compound], the “disinfectant efficacy at the lower temperature (in words)” value [4] was “significantly decreases”, the “Average CFU/mL” value ([6]; 24.8 ppm POAA × 1.25, pH 6.73) was less than 140 CFU/mL and the “Log10 Growth” value ([6]; 24.8 ppm POAA × 1.25, pH 6.73) was less than 2.15. The “Average CFU/mL” value ([6]; 37.6 ppm POAA × 1.25, pH 6.90) was less than 140 CFU/mL, the “Log10 Growth” value ([6]; 37.6 ppm POAA × 1.25, pH 6.90) was less than 2.15 and the “Average CFU/mL” value ([6]; 62.4 ppm POAA × 1.25, pH 6.98) was less than 140 CFU/mL. The “Log10 Growth” value ([6]; 62.4 ppm POAA × 1.25, pH 6.98) was less than 2.15, the “Average CFU/mL” value ([7]; 24.8 ppm POAA × 1.25, pH 6.73) was greater than 3.30E+05 CFU/mL and the “Log10 Growth” value ([7]; 24.8 ppm POAA × 1.25, pH 6.73) was greater than 5.52. For the same compound, the “Average CFU/mL” value ([7]; 37.6 ppm POAA × 1.25, pH 6.90) was 9.25E+03 CFU/mL, the “Log10 Growth” value ([7]; 37.6 ppm POAA × 1.25, pH 6.90) was 3.97 and the “Average CFU/mL” value ([7]; 62.4 ppm POAA × 1.25, pH 6.98) was less than 140 CFU/mL. The “Log10 Growth” value ([7]; 62.4 ppm POAA × 1.25, pH 6.98) was less than 2.15, the “Average CFU/mL” value ([8]; 24.8 ppm POAA × 1.25, pH 6.73) was 1.77E+05 CFU/mL and the “Log10 Growth” value ([8]; 24.8 ppm POAA × 1.25, pH 6.73) was 5.25. For the same compound, the “Average CFU/mL” value ([8]; 37.6 ppm POAA × 1.25, pH 6.90) was less than 140 CFU/mL, the “Log10 Growth” value ([8]; 37.6 ppm POAA × 1.25, pH 6.90) was less than 2.15 and the “Average CFU/mL” value ([8]; 62.4 ppm POAA × 1.25, pH 6.98) was less than 140 CFU/mL. For the same compound, the “Log10 Growth” value ([8]; 62.4 ppm POAA × 1.25, pH 6.98) was less than 2.15, the “Average Log CFU/cm2” value [9, 12] was 2.98 Log CFU/cm2 and the “Log reduction” value [9, 12] was 1.06. The CFU/cm2 [9, 12] was 1.20E+03 CFU/cm2 and 9.00E+02 CFU/cm2 and 8.00E+02 CFU/cm2, the CFU/ml [9, 12] was 6.00E+02 CFU/ml and 4.50E+02 CFU/ml and 4.00E+02 CFU/ml and the “Log CFU/cm2” value [9, 12] was 3.08 Log CFU/cm2 and 2.95 Log CFU/cm2 and 2.90 Log CFU/cm2. For the same compound, the “Log reduction” value ([9]; 220 ppm POAA, pH 8.86, dip for 10 minutes, ambient) was 1.06.
